Patent US20040023855A1, “Biologic modulations with nanoparticles” (priority 2002, published 2004)
Marks after values point to notes of the source that are not given here.

Key:
Galectin-3 = Galectin-3 (Homo sapiens, UniProt P17931); settings: relative affinity, lactose on galectin-3 given as 1; cited from earlier work
[1] = system: Alva-41 prostate carcinoma cells; test: In vitro growth inhibition (cytotoxicity) by cisplatin nanoparticles; format: cell-based, human; settings: at doses greater than 60 µg/ml
Protocol: FIG. 3 is a graph showing the in vitro cytotoxicity of nanoparticles comprising cisplatin and various cell recognition components for Alva-41, human tumor cells derived from a prostate carcinoma metastasis; and
Cisplatin was nanoencapsulated into the various candidate tumor-binding agents as described previously and nanoparticles were compared for growth inhibition in a metastatic variant of Alva-41 prostate carcinoma cells and Ca-9-22. Formulas were tested in duplicate in two separate experiments. Results are illustrated for the prostate cell line in FIG. 3. Referring to FIG. 3, PEX-MMP-l/Cisplatin refers to s50 nanoparticles comprising cisplatin and the Recombinant Pex binding domain of membrane-associated Matrix Metalloproteinase-1 (see Bello et. al, Cancer Research (2001) 61: 8730-36); Tenascin/Cisplatin refers to s50 nanoparticles having tenascin and cisplatin, FN-PHSCN/Cisplatin refers to nanoparticles comprising the FN-PHSCN fragment and cisplatin, galectin-3/cisplatin refers to s50 nanoparticles comprising recombinant N-terminally truncated galectin-3 and cisplatin, hyaluronan/cisplatin refers to s50 nanoparticles comprising hyaluronan and cisplatin, and naked cisplatin refers to the addition of free cisplatin to the cell medium. In these experiments cells were plated at 5,000 per well and followed for 72 hours. […]

Galectin-3C = molecular target: T1, Galectin-3C (Homo sapiens, UniProt P17931); settings: relative affinity, same scale as galectin-3 column; cited from earlier work
T1 construct: The digestion produced a 143 amino acid residue polypeptide beginning with Gly-108
T1 sequence (P17931 108-250): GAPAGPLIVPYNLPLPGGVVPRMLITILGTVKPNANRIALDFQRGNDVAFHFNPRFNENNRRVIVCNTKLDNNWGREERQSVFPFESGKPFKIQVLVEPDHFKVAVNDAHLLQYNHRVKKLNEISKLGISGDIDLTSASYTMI

[2] = Maximum tolerated dose in nude mice; format: in vivo; settings: without overt adverse effects
[3] = parameters: species or system nude mice; settings: mouse, in vivo, im
[4] = system: orthotopically implanted tumors derived from breast cancer cell line MDA-MB435; test: Orthotopic mouse model of human breast cancer; format: in vivo, nude mice
Protocol: The safety, plasma half-life, and efficacy of galectin-3C in an orthotopic mouse model of human breast cancer was evaluated. A recent feasibility study of the anticancer activity of recombinant human galectin-3 N-terminally truncated by exhaustive digestion with Clostridium histiolyticum collagenase type VII (Sigma; St. Louis, Mo.), (36, 75) in an orthotopic mouse model of metastatic breast cancer (22) produced promising results. The digestion produced a 143 amino acid residue polypeptide beginning with Gly-108. In treated animals the number of primary tumors that metastasized was less than controls by 3-fold (P=0.031), and the mean primary tumor volume of the treated animals was 61% less than the controls (P=0.009). The results provide compelling evidence that treatment with an N-terminally truncated form of galectin-3 could useful in treatment and prevention of cancer, especially metastatic cancer.
One example of the use in vivo of N-terminally truncated galectin-3 is as a potential therapeutic agent for breast cancer. It was determined that therapy with an N-terminally truncated form of galectin-3 is efficacious for inhibition of metastases. To this end, recombinant galectin-3 was produced and the N-terminally truncated galectin-3 was derived by collagenase enzyme digestion and affinity chromatography. Injected N-terminally truncated galectin-3 was detected by metabolic labeling with ^35S methionine prior to collagenase cleavage. […] Mice bearing orthotopically implanted tumors derived from breast cancer cell line MDA-MB435 were treated intramuscularly twice daily for 90 days with N-terminally truncated galectin-3 or a vehicle control. […] In a recent study at the end of the treatment period, the number of treated animals with primary tumors that metastasized was less than controls by 3-fold (P=0.031), and the mean primary tumor volume of the treated animals was 61% less than the controls (P=0.009). The results provide compelling evidence that treatment with an N-terminally truncated form of galectin-3 could useful in treatment and prevention of cancer, especially metastatic cancer. The truncated form of galectin-3 was efficacious in reducing metastases, and the tumor volumes and weights of primary tumors.

[5] = system: dog-kidney epithelial cell line MDCK II (Madin-Darby Canine Kidney); settings: lactose-inhibitable, cited from earlier work
[6] = intramuscularly twice daily for 90 days

Chain of Galectin-3 (P17931 whole entry): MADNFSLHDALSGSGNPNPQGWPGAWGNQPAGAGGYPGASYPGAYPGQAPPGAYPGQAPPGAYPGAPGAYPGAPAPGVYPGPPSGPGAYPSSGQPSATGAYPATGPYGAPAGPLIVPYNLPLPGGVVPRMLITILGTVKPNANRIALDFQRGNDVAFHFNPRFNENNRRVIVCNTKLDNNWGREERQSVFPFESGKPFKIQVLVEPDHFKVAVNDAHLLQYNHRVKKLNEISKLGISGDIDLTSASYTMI

Galβ1→4GlcNAc [Galβ1→4GlcNAc (LacNAc)]
Relative Carbohydrate Affinities, Galectin-3 (Galectin-3): 11.3

CO[C@H]1O[C@H](CO)[C@H](O)[C@H](O[C@H]2O[C@H](CO)[C@H](O)[C@H](O)[C@H]2O)[C@H]1O [Galα1→3GalαOme]
Relative Carbohydrate Affinities, Galectin-3 (Galectin-3): 0.2

N.N.[Cl][Pt][Cl] [free cisplatin, cisplatin]
activity compared to the other nanocapsule formulations [1]: greatest activity

(LacNAc)2
Relative Carbohydrate Affinities, Galectin-3 (Galectin-3): 20* | Relative Carbohydrate Affinities, Galectin-3C (Galectin-3C): 54

(LacNAc)5
Relative Carbohydrate Affinities, Galectin-3 (Galectin-3): 137 | Relative Carbohydrate Affinities, Galectin-3C (Galectin-3C): 60.5

Galβ1→4(Fucα1→3)GlcNAc [Galβ1→4(Fucα1→3)GlcNAc (LeX)]
Relative Carbohydrate Affinities, Galectin-3 (Galectin-3): <0.02

N-terminally truncated galectin-3: recombinant human galectin-3 truncated by collagenase digestion; 143 amino acid polypeptide beginning with Gly-108 (SEQ ID NO. 1)
maximum tolerated dose [2]: greater than 125 mg/kg | pharmacokinetic elimination half-life [3]: 4.56 h | mean primary tumor volume less than the controls ([4]; end of treatment period, P=0.009): 61% | number of treated animals with primary tumors that metastasized, less than controls ([4]; end of treatment period, P=0.031): 3 fold | mean tumor volumes compared with control mice [4, 6]: statistically significantly less | mean tumor weights compared with control mice [4, 6]: statistically significantly less | mice with lymph node metastases compared with control group [4, 6]: fewer numbers of mice exhibited lymph node metastases

galectin-3: intact wild-type galectin-3, chimera type β-galactoside binding lectin (SEQ ID NO. 3)
apically bound radiolabeled galectin-3 endocytosed ([5]; Transwell chambers): more than 90% | galectin-3 transcytosed ([5]; after 120 min): 20%

Galβ1→3GlcNAc
Relative Carbohydrate Affinities, Galectin-3 (Galectin-3): 6.3
